Values joined by “and” are separate entries in the source; they are usually repeats but may differ in a detail not shown here. Equal values may be shown once. Read-outs that look alike come from different tables or passages of the source.
Columns and labels:
human p38α = human p38α (Homo sapiens, UniProt Q16539); assay: Purified and activated recombinant human p38α HTRF kinase assay; type: biochemical; conditions: recombinant human p38α 1 nM, 50 μM ATP, read-out: p38a IC50
Procedure: Purified and Activated Recombinant Human p38α Assay Kinase Reaction Buffer: Kinase reaction buffer for p38α HTRF assays consists of 50 mM Tris-pH 7.5, 5 mM MgCl2, 0.1 mg/mL BSA, 100 μM Na3VO4 and 0.5 mM DTT. HTRF Detection Buffer: HTRF detection buffer contains 100 mM HEPES-pH 7.5, 100 mM NaCl, 0.1% BSA, 0.05% Tween-20, and 10 mM EDTA. Serial Dilution of Compounds: Compounds were dissolved in 100% DMSO and serially diluted (3 fold, 10 point) in a polypropylene 96-well microtiter plate (drug plate). The final starting concentration of compounds in the p38α enzymatic assays was 1 μM. […] Kinase Reaction: […] See table below for actual concentrations. In the absence of substrate, the background was measured as LO control. The reaction was allowed to incubate for 1 hour at RT. Assay Reagent Concentrations: […] HTRF Detection: […] After 60 minutes incubation at room temperature, the assay plate was read in a Discovery Plate Reader. The wells were excited with coherent 320 nm light and the ratio of delayed ([…] post excitation) emissions at […] (native europium fluorescence) and 665 nm (europium fluorescence transferred to allophycocyanin-an index of substrate phosphorylation) was determined (Park et al, 1999). Data Analysis: The proportion of substrate phosphorylated in the kinase reaction in the presence of compound compared with that phosphorylated in the presence of DMSO vehicle alone (HI control) was calculated using the formula: % control (POC)=(compound-average LO)/(average HI-average LO)*100. […] The inhibition constant (Ki) of the inhibitor was estimated from the IC50 (compound concentration at the point of inflection C) using the Cheng-Prussof equation: […] All results were expressed as the mean±the standard error of the mean.

[1] = tested on: IL-1β, IL-6 and TNF-α production by LPS-activated PBMC; assay: Lipopolysaccharide-activated PBMC cytokine production assay; type: cell-based; conditions: Homo sapiens, read-out: IC50 in the whole blood PMBC assay
Procedure: Lipopolysaccharide-Activated PBMC Cytokine Production Assay
Test compounds were evaluated in vitro for the ability to inhibit the production of IL-1β, IL-6, and TNF-α by PBMC activated with bacterial lipopolysaccharide (LPS). Fresh leukocytes were obtained from a local blood bank, and peripheral blood mononuclear cells (PBMCs) were isolated by density gradient centrifugation on Ficol-Paque Plus (Pharmacia).
Preparation of Test Compound Stock Solutions
All reagents were prepared in RPMI 1640+10% v/v human AB serum+1× Pens/Strep/Glu (assay medium). Test compounds were dissolved in 100% DMSO and serially diluted in 96-well polypropylene round bottom micro titer plates (drug plate). Serial dilutions were then diluted 1:250 into assay medium to a 4× working concentration. Compound serial dilutions were half-log, 10 point titrations with a final starting concentration of 1 μM.
Treatment of Cells with Test Compounds and Activation with Lipopolysaccharide
LPS was prepared to a 4× concentration in assay medium. 100 μl of PBMC (1×10^6 cells/ml) were plated in a 96-well polystyrene flat bottom micro titer tissue culture plate and incubated with 50 μl of 4× compound serial dilution for 1 hour at 37° C., 5% CO2 in a tissue culture incubator. 50 μl 4×LPS or control was added and the plates were incubated at 37° C., 5% CO2 in a tissue culture incubator for 18 hours. The final DMSO concentration was 0.1%. The total volume was 200 μL. The final LPS concentration was 100 ng/mL. After 18 hours culture supernatants were removed and IL-1β, IL-6, and TNF-α presence in the supernatants was quantified using MSD ECL based technology.
20 μL of culture supernatant were added to MSD plates, and incubated for one hour at room temperature. 20 μL of detection antibody diluted in antibody diluent (1 μg/mL), and 110 μL of 2× Read Buffer P was added, and incubated for one hour at RT. Electrochemiluminescence was measured using the SECTOR HTS Imager (MSD, Gaithersburg, Md.).
Compound IC50 values were calculated as follows: The proportion of cytokine production in the presence of compound compared to the cytokine production in the presence of the DMSO vehicle alone (Hi control) was calculated using the formula: Percent Control (POC)=(compound−average Lo)/(average Hi−average Lo)*100.

[2] = tested on: TNF-α induced IL-8 production in human whole blood; assay: Inhibition of TNF-α induced IL-8 in 50% human whole blood; type: cell-based
Procedure: Inhibition of TNF-α Induced IL-8 in 50% Human Whole Blood Test compounds were evaluated in vitro for the ability to inhibit the production of secreted IL-8 by whole blood activated with TNF-α. Fresh human whole blood was obtained from healthy, non-medicated volunteers in sodium heparin tubes. Compound Dilution—Assay Procedure […] Cytokine Measurement Cytokines are measured on antibody (Ab) sandwich ECL based 96-well detection plates. 20 ul of supernatant are added to plate and plate is sealed and shaken at RT for 1 hour. 130 ul of detection Ab cocktail is added and plates are sealed and shaken for 1 hour in the dark at RT. Plates are read on MSD Sector HTS instrument.

[3] = tested on: TNF-α production by LPS-activated THP1 cells; assay: Lipopolysaccharide-activated THP1 cell TNF production assay; type: cell-based; conditions: Homo sapiens, THP-1, 3 hours, read-out: IC50 in the THP-1 cellular TNF production assay
Procedure: Lipopolysaccharide-activated THP1 Cell TNF Production Assay
THP1 cells were resuspended in fresh THP1 media (RPMI 1640, 10% heat-inactivated FBS, 1×PGS, 1×NEAA, plus 30 μM βME) at a concentration of 1.5×10^6 cells per mL. One hundred microliters of cells per well were plated in a polystyrene 96-well tissue culture plate. 1.5 micrograms per mL of bacterial LPS was prepared in THP1 media and transferred to the first 11 columns of a 96-well polypropylene plate. Column 12 contained only THP1 media for the LO control. Compounds were dissolved in 100% DMSO and serially diluted 3 fold in a polypropylene 96-well microtiter plate (drug plate). Columns 6 and 12 were reserved as controls (HI controls and LO controls respectively) and contained only DMSO. […] Fifty microliters of conditioned media was transferred to a 96-well MULTI-ARRAY™ 96-well small spot plate—custom coated with MAB610 containing 100 μL of 2× Read Buffer P supplemented with 0.34 nM AF210NA polyclonal Ab labeled with ruthenium (MSD-Sulfo-TAG™—NHS ester). After an overnight incubation at room temperature with shaking, the reaction was read on the Sector Imager™ 6000. […] The amount of secreted TNF-α in the presence of test compounds compared with that in the presence of DMSO vehicle alone (HI control) was calculated using the formula: % control (POC)=(cpd−average LO)/(average HI−averageLO)*100. […]

[4] = Homo sapiens, read-out: WB TNF/IL8 IC50, TNF-α (1 nM) induced IL-8, 50% human whole blood, 16-18 hours

human p38α, sequence (Q16539 whole entry): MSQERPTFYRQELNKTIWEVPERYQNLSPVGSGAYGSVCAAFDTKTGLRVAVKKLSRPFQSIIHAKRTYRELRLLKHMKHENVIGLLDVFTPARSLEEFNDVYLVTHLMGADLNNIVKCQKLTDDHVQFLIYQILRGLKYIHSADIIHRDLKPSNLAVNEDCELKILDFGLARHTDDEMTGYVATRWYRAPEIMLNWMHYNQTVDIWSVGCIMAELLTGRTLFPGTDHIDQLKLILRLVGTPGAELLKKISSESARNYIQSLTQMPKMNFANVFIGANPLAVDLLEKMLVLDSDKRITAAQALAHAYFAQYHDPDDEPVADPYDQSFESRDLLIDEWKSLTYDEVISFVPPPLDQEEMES

| Compound | IC50 (human p38α) | IC50 ([1]; 18 h) [µM] | IC50 [2, 4] [µM] | IC50 ([1]; LPS 100 ng/mL, 18 hours) [µM] | IC50 ([2]; read-out: WB TNF/IL8 IC50, TNF-α (1 nM) induced IL-8, 50% human whole blood, 16-18 hours) [µM] | IC50 [3] [µM] |
| --- | --- | --- | --- | --- | --- | --- |
| CCn1c(=O)c(Nc2ccc(F)cc2F)cc2cnnc(-c3ccc(F)cc3F)c21 [Example 5, 8-(2,4-difluorophenyl)-3-((2,4-difluorophenyl)amino)-1-ethylpyrido[2,3-d]pyridazin-2(1H)-one] | 0.0002 µM | ≤ 1 | – | – | – | – |
| Cn1c(=O)c(Nc2ncc(F)cc2F)cc2cnnc(-c3ccc(F)cc3F)c21 [Example 7, 8-(2,4-difluorophenyl)-3-((3,5-difluoro-2-pyridinyl)amino)-1-methylpyrido[2,3-d]pyridazin-2(1H)-one] | 0.111 µM | – | > 2.5 | – | – | – |
| Cn1c(=O)c(Nc2ccc(F)cc2F)cc2cnnc(-c3ccc(S(C)(=O)=O)cc3Cl)c21 [Example 10, 8-(2-chloro-4-(methylsulfonyl)phenyl)-3-((2,4-difluorophenyl)amino)-1-methylpyrido[2,3-d]pyridazin-2(1 H)-one] | 0.0008 µM | – | – | ≤ 1 | – | – |
| Cn1c(=O)c(Oc2ccc(F)cc2F)cc2cnnc(-c3ccc(F)cc3F)c21 [Example 12, 3-(2,4-difluorophenoxy)-8-(2,4-difluorophenyl)-1-methylpyrido[2,3-d]pyridazin-2(1H)-one] | 0.0084 µM | – | – | ≤ 1 | – | – |
| Cn1c(=O)c(Nc2ccc(F)cn2)cc2cnnc(-c3ccc(F)cc3F)c21 [Example 4, 8-(2,4-difluorophenyl)-3-((5-fluoro-2-pyridinyl)amino)-1-methylpyrido[2,3-d]pyridazin-2(1H)-one] | 0.327 µM | – | > 2.5 | – | – | – |
| Cc1cc(S(C)(=O)=O)ccc1-c1nncc2cc(Oc3ccc(F)cc3F)c(=O)n(C)c12 [Example 9, 3-(2,4-difluorophenoxy)-1-methyl-8-(2-methyl-4-(methylsulfonyl)phenyl)pyrido[2,3-d]pyridazin-2(1H)-one] | 0.011 µM | – | – | ≤ 1 | – | – |
| Cn1c(=O)c(Oc2ccc(F)cc2F)cc2cnnc(-c3ccccc3Cl)c21 [Example 6, 8-(2-chlorophenyl)-3-(2,4-difluorophenoxy)-1-methylpyrido[2,3-d]pyridazin-2(1H)-one] | 0.0006 µM | ≤ 1 | – | – | – | – |
| Cn1c(=O)c(Oc2ccc(F)cc2)cc2cnnc(-c3ccc(F)cc3F)c21 [Example 2, 8-(2,4-difluorophenyl)-3-(4-fluorophenoxy)-1-methylpyrido[3,2-d]pyridazin-2(1H)-one] | ≤ 0.125 µM and 0.102 µM | ≤ 1 | ≤ 0.3 | – | 0.273 | ≤ 1 |
| Cn1c(=O)c(Nc2ccc(F)cc2)cc2cnnc(-c3ccc(F)cc3F)c21 [Example 11, 8-(2,4-difluorophenyl)-3-((4-fluorophenyl)amino)-1-methylpyrido[2,3-d]pyridazin-2(1H)-one] | 0.0022 µM | – | – | ≤ 1 | – | – |
| Cc1cc(S(C)(=O)=O)ccc1-c1nncc2cc(Nc3ccc(F)cc3F)c(=O)n(C)c12 [Example 8, 3-((2,4-difluorophenyl)amino)-1-methyl-8-(2-methyl-4-(methylsulfonyl)phenyl)pyrido[2,3-d]pyridazin-2(1H)-one] | 0.0017 µM | ≤ 1 | – | – | – | – |
| Cn1c(=O)c(Nc2ccc(F)cc2F)cc2cnnc(-c3ccc(F)cc3F)c21 [Example 1, 8-(2,4-difluorophenyl)-3-(2,4-difluorophenylamino)-1-methylpyrido[3,2-d]pyridazin-2(1H)-one] | 0.0008 µM | ≤ 1 | – | – | – | ≤ 1 |
| Cn1c(=O)c(Nc2ccc(F)cc2F)cc2cnnc(-c3ccc(C(F)(F)F)cc3F)c21 [Example 3, 3-(2,4-difluorophenylamino)-8-(2-fluoro-4-(trifluoromethyl)phenyl)-1-methylpyrido[3,2-d]pyridazin-2(1H)-one] | 0.0023 µM | ≤ 1 | – | – | – | – |

From patent US8420649B2, “Pyrido[3,2-d]pyridazine-2(1H)-one compounds as p38 modulators and methods of use thereof” (Amgen Inc., priority 2008, dated 2013)
